Measurements published in patent publication US9056843B2, “Trifluoromethyl-oxadiazole derivatives and their use in the treatment of disease” (NOVARTIS AG, priority 2011, dated 2015).
Read-outs that look alike come from different tables or passages of the source. Blank lines part the entries; values can stand above or below the compound they belong to.

Tests used:
Assay type in all cases: biochemical
[1] = target: Human recombinant full length HDAC6 (Homo sapiens (Human), UniProt Q9UBN7); assay: Test 4: HDAC6 assay
Chain of Human recombinant full length HDAC6 (Q9UBN7 whole entry): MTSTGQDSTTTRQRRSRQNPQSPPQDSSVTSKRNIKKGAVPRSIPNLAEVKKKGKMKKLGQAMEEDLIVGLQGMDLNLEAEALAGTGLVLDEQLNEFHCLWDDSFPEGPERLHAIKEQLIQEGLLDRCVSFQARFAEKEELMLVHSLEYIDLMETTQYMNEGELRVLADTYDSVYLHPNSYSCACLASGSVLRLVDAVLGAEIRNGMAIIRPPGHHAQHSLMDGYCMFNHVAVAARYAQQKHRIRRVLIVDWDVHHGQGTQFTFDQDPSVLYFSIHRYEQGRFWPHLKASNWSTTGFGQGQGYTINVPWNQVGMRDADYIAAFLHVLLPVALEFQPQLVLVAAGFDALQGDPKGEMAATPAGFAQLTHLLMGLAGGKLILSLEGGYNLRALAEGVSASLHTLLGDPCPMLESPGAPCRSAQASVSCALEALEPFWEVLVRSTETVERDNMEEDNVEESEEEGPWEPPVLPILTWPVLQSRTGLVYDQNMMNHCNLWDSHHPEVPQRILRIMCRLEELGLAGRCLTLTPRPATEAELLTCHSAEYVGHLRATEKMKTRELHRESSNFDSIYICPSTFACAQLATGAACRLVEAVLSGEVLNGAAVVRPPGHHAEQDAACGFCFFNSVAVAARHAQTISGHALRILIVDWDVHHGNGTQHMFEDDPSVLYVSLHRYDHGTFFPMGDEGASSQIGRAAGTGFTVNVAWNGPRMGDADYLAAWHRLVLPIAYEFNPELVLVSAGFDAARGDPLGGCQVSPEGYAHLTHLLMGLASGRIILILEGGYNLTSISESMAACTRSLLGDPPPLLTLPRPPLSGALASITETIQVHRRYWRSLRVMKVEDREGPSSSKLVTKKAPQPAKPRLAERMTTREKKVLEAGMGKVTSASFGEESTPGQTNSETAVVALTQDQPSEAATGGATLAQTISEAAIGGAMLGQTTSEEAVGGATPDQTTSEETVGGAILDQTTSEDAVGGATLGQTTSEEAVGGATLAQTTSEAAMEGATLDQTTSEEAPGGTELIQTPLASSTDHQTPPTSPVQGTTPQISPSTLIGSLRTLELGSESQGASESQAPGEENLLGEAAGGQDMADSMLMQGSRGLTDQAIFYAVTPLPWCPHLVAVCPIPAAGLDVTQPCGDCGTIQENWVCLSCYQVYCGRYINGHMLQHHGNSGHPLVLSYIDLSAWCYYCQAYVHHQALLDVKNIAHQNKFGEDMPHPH
Method: (§1) Control wells with HDAC4 only (positive control) and without HDAC4 (negative control) were included on the microplate. Bovine trypsin (4.5 μl of a 300 nM solution) was added and the plate incubated for additional 15 minutes at room temperature. The plate was placed in a fluorescence microplate reader, and read at an excitation wavelength of 360 nm and an emission wavelength of 450 nm with a 10 nm bandpath. Fluorescence values for all wells containing HDAC4 (positive control and wells with test compound) were corrected by subtracting negative control fluorescence values, and IC50 values were calculated by fitting the dose-response curves to a 4-parameter logistic function.
Test 4: HDAC6 Assay Description
A similar assay procedure as described in Test 2 was used for HDAC6. Human recombinant full length HDAC6 expressed in a baculovirus expression system was purchased from BPS BioSciences (San Diego, Calif., U.S.A.). The substrate used in the […] assay was 5 μM of acetyl-Gly-Ala-Lys(acetyl)-AMC.

Human recombinant HDAC4 = Human recombinant HDAC4 (Homo sapiens (Human), UniProt P56524); assay: Test 2: HDAC4 assay (fluorogenic substrate, 5 μM acetyl-Gly-Ala-Lys(ε-trifluoroacetyl)-AMC); conditions: Test 2 (values without asterisk)
Chain of Human recombinant HDAC4 (P56524 2-1084): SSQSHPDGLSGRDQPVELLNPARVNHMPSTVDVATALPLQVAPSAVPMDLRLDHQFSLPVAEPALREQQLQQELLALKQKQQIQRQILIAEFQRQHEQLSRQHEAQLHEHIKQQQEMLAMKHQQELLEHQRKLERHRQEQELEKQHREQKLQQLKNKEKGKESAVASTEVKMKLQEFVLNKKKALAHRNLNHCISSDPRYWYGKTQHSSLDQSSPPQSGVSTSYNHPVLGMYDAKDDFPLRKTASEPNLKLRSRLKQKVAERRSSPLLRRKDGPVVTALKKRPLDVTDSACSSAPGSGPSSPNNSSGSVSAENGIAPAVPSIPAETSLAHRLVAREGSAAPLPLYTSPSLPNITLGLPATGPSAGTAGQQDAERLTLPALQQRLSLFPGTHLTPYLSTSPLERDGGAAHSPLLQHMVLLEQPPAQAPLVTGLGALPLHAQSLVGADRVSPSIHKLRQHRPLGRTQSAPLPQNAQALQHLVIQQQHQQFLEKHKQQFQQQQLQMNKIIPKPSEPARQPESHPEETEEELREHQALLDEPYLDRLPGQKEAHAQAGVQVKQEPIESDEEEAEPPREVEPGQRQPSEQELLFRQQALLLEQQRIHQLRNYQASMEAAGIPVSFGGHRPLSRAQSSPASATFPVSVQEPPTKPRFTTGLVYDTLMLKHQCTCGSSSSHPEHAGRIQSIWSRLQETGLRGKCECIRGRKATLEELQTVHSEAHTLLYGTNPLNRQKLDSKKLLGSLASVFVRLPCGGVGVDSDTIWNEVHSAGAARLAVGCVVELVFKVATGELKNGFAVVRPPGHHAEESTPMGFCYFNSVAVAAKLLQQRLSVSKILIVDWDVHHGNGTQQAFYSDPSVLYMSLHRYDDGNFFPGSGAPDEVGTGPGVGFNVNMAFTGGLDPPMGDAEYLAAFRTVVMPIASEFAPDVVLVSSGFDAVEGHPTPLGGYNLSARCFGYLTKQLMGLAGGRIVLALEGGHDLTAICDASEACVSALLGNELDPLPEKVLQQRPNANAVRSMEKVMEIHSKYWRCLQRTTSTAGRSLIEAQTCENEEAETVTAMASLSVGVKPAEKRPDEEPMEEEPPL
Method: Test 2: HDAC4 Assay Description
as §1

[2] = target: Human recombinant full length HDAC1 (Homo sapiens (Human), UniProt Q13547); assay: Test 3: HDAC1 assay; conditions: substrate 5 μM acetyl-Gly-Ala-Lys(acetyl)-AMC
Chain of Human recombinant full length HDAC1 (Q13547 whole entry): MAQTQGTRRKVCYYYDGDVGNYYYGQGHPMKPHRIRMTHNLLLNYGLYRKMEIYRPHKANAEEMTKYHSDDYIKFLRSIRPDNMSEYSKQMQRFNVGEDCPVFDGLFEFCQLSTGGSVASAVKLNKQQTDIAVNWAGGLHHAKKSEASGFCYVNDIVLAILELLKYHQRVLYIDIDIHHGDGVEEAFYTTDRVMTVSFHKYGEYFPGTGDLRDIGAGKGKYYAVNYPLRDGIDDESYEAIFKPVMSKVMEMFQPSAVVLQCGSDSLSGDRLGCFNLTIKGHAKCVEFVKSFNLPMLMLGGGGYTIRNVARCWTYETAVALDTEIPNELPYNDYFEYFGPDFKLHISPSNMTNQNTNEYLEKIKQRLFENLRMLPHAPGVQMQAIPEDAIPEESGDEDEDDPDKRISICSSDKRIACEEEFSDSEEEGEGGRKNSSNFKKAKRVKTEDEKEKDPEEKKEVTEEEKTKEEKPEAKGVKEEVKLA
Method: as §1
Test 3: HDAC1 Assay Description
A similar assay procedure as described in Test 2 was used for HDAC1. Human recombinant full length HDAC1 expressed in a baculovirus expression system was purchased from BPS BioSciences (San Diego, Calif., U.S.A.). The substrate used in the […] assay was 5 μM of acetyl-Gly-Ala-Lys(acetyl)-AMC.

[3] = Test 4, substrate 5 μM acetyl-Gly-Ala-Lys(acetyl)-AMC

Compound: COCCNC(=O)Cc1ccc(-c2noc(C(F)(F)F)n2)cc1 [Example 7, N-(2-methoxyethyl)-2-(4-(5-(trifluoromethyl)-1,2,4-oxadiazol-3-yl)phenyl)acetamide]
IC50 [1, 3]: 6900 nM
IC50 (Human recombinant HDAC4): 960 nM
IC50 [2]: > 10000 nM

Compound: C[C@@H](CN(C)C)NC(=O)c1ccc(-c2noc(C(F)(F)F)n2)cc1 [Example 82, (S)—N-(1-(dimethylamino)propan-2-yl)-4-(5-(trifluoromethyl)-1,2,4-oxadiazol-3-yl)benzamide]
IC50 [1, 3]: > 10000 nM
IC50 (Human recombinant HDAC4): 120 nM
IC50 [2]: > 10000 nM

Compound: O=C(NC1CCOCC1)c1ccc(-c2noc(C(F)(F)F)n2)cc1 [Example 57, N-(tetrahydro-2H-pyran-4-yl)-4-(5-(trifluoromethyl)-1,2,4-oxadiazol-3-yl)benzamide]
IC50 [1, 3]: 6500 nM
IC50 (Human recombinant HDAC4): 520 nM
IC50 [2]: > 10000 nM

Compound: O=C(c1ccc(-c2noc(C(F)(F)F)n2)cc1)N1CCC(Cc2ccccc2)CC1 [Example 43, (4-benzylpiperidin-1-yl)(4-(5-(trifluoromethyl)-1,2,4-oxadiazol-3-yl)phenvyl)methanone]
IC50 [1, 3]: > 10000 nM
IC50 (Human recombinant HDAC4): 290 nM
IC50 [2]: > 10000 nM

Compound: O=C(c1ccc(-c2noc(C(F)(F)F)n2)cc1)N1CCCC1 [Example 23, Pyrrolidin-1-yl(4-(5-(trifluoromethyl)-1,2,4-oxadiazol-3-yl)phenyl)methanone]
IC50 [1, 3]: 6000 nM
IC50 (Human recombinant HDAC4): 1500 nM
IC50 [2]: > 10000 nM

Compound: COc1cc(NC(=O)c2ccc(-c3noc(C(F)(F)F)n3)cc2)ccn1 [Example 67, N-(2-methoxypyridin-4-yl)-4-(5-(trifluoromethyl)-1,2,4-oxadiazol-3-yl)benzamide]
IC50 [1, 3]: 8300 nM
IC50 (Human recombinant HDAC4): 160 nM
IC50 [2]: > 10000 nM

Compound: CC(C)[C@H](CN(C)C)NC(=O)c1ccc(-c2noc(C(F)(F)F)n2)cc1 [Example 84, (R)—N-(1-(dimethylamino)-3-methylbutan-2-yl)-4-(5-(trifluoromethyl)-1,2,4-oxadiazol-3-yl)benzamide]
IC50 [1, 3]: > 10000 nM
IC50 (Human recombinant HDAC4): 490 nM
IC50 [2]: > 10000 nM

Compound: O=C(NCCCO)c1ccc(-c2noc(C(F)(F)F)n2)cc1 [Example 17, N-(3-hydroxyypropyl)-4-(5-(trifluoromethyl)-1,2,4-oxadiazol-3-yl)benzamide]
IC50 [1]: 8600 nM
IC50 (Human recombinant HDAC4): 1400 nM
IC50 [2]: > 10000 nM

Compound: C[C@H](CN(C)C)NC(=O)c1ccc(-c2noc(C(F)(F)F)n2)cc1 [Example 81, (R)—N-(1-(dimethylamino)propan-2-yl)-4-(5-(trifluoromethyl)-1,2,4-oxadiazol-3-yl)benzamide]
IC50 [1, 3]: > 10000 nM
IC50 (Human recombinant HDAC4): 34 nM
IC50 [2]: > 10000 nM

Compound: CN1CCN(C(=O)c2ccc(-c3noc(C(F)(F)F)n3)cc2)CC1 [Example 36, (4-methylpiperazin-1-yl)(4-(5-(trifluoromethyl)-1,2,4-oxadiazol-3-yl)phenvyl)methanone]
IC50 [1, 3]: > 10000 nM
IC50 (Human recombinant HDAC4): 2700 nM
IC50 [2]: > 10000 nM

Compound: CCN(CC)C[C@H](C)NC(=O)c1ccc(-c2noc(C(F)(F)F)n2)cc1F [Example 127, (S)—N-(1-(diethylamino)propan-2-yl)-2-fluoro-4-(5-(trifluoromethyl)-1,2,4-oxadiazol-3-yl)benzamide]
IC50 [1, 3]: > 10000 nM
IC50 (Human recombinant HDAC4): 44 nM
IC50 [2]: > 10000 nM

Compound: O=C(NCc1ccc(CN2CCOCC2)cc1)c1ccc(-c2noc(C(F)(F)F)n2)cc1 [Example 44, N-(4-(morpholinomethyl)benzyl)-4-(5-(trifluoromethyl)-1,2,4-oxadiazol-3-yl)benzamide]
IC50 [1, 3]: 5700 nM
IC50 (Human recombinant HDAC4): 380 nM
IC50 [2]: > 10000 nM

Compound: CN1CCC(CNC(=O)c2ccc(-c3noc(C(F)(F)F)n3)cc2)CC1 [Example 49, N-((1-methylpiperidin-4-yl)methyl)-4-(5-(trifluoromethyl)-1,2,4-oxadiazol-3-yl)benzamide]
IC50 [1, 3]: > 10000 nM
IC50 (Human recombinant HDAC4): 990 nM
IC50 [2]: > 10000 nM

Compound: CN1CCC(CNS(=O)(=O)c2ccc(-c3noc(C(F)(F)F)n3)cc2)C1 (stereo not drawn) [Example 115, N-((1-methylpyrrolidin-3-yl)methyl)-4-(5-(trifluoromethyl)-1,2,4-oxadiazol-3-yl)benzenesulfonamide]
IC50 [1, 3]: > 10000 nM
IC50 (Human recombinant HDAC4): 2700 nM
IC50 [2]: > 10000 nM

Compound: CC(C)CC(CO)NC(=O)c1ccc(-c2noc(C(F)(F)F)n2)cc1 (stereo not drawn) [Example 58, N-(1-hydroxy-4-methylpentan-2-yl)-4-(5-(trifluoromethyl)-1,2,4-oxadiazol-3-yl)benzamide]
IC50 [1, 3]: 5500 nM
IC50 (Human recombinant HDAC4): 650 nM
IC50 [2]: > 10000 nM

Compound: CN(C)C1CCN(C(=O)c2ccc(-c3noc(C(F)(F)F)n3)cc2)CC1 [Example 39, (4-(dimethylamino)piperidin-1-yl)(4-(5-(trifluoromethyl)-1,2,4-oxadiazol-3-yl)phenyl)methanone]
IC50 [1, 3]: > 10000 nM
IC50 (Human recombinant HDAC4): 1200 nM
IC50 [2]: > 10000 nM

Compound: CNC(=O)CNC(=O)c1ccc(-c2noc(C(F)(F)F)n2)cc1 [Example 63, N-(2-(methylamino)-2-oxoethyl)-4-(5-(trifluoromethyl)-1,2,4-oxadiazol-3-yl)benzamide]
IC50 [1, 3]: > 10000 nM
IC50 (Human recombinant HDAC4): 780 nM
IC50 [2]: > 10000 nM

Compound: CCOC(=O)CNC(=O)Cc1ccc(-c2noc(C(F)(F)F)n2)cc1 [Example 8, Ethyl 2-(2-(4-(5-(trifluoromethyl)-1,2,4-oxadiazol-3-yl)phenyl)acetamido)acetate]
IC50 [1, 3]: 7600 nM
IC50 (Human recombinant HDAC4): 580 nM
IC50 [2]: > 10000 nM

Compound: O=C(N[C@H]1CCNC1)c1ccc(-c2noc(C(F)(F)F)n2)cc1 [Example 87, (S)—N-(pyrrolidin-3-yl)-4-(5-(trifluoromethyl)-1,2,4-oxadiazol-3-yl)benzamide]
IC50 (Human recombinant HDAC4): 300 nM

Results, then the compound that gave them:

IC50 [1, 3]: 4800 nM
IC50 (Human recombinant HDAC4): 140 nM
IC50 [2]: > 10000 nM
Compound: O=C(Nc1cccnc1)c1ccc(-c2noc(C(F)(F)F)n2)cc1 [Example 48, N-(ppyridin-3-yl)-4-(5-(trifluoromethyl)-1,2,4-oxadiazol-3-yl)benzamide]

IC50 [1, 3]: 4700 nM
IC50 (Human recombinant HDAC4): 220 nM
IC50 [2]: > 10000 nM
Compound: CN(C)C[C@@H](Cc1ccccc1)NC(=O)c1ccc(-c2noc(C(F)(F)F)n2)cc1F [Example 118, (R)—N-(1-(dimethylamino)-3-phenylpropan-2-yl)-2-fluoro-4-(5-(trifluoromethyl)-1,2,4-oxadiazol-3-yl)benzamide]

IC50 [1, 3]: 4600 nM
IC50 (Human recombinant HDAC4): 240 nM
IC50 [2]: > 10000 nM
Compound: CN1C(C)(C)CC(NC(=O)c2ccc(-c3noc(C(F)(F)F)n3)cc2)CC1(C)C [Example 65, N-(1,2,2,6,6-pentamethylpiperidin-4-yl)-4-(5-(trifluoromethyl)-1,2,4-oxadiazol-3-yl)benzamide]

IC50 [1, 3]: 3300 nM
IC50 (Human recombinant HDAC4): 780 nM
IC50 [2]: > 10000 nM
Compound: O=C(NCc1ccccc1)c1ccc(-c2noc(C(F)(F)F)n2)cc1 [Example 46, N-benzyl-4-(5-(trifluoromethyl)-1,2,4-oxadiazol-3-yl)benzamide]

IC50 [1, 3]: 580 nM
IC50 (Human recombinant HDAC4): 290 nM
IC50 [2]: > 10000 nM
Compound: O=S(=O)(Nc1ccccc1F)c1ccc(-c2noc(C(F)(F)F)n2)cc1 [Example 111, N-(2-fluorophenyl)-4-(5-(trifluoromethyl)-1,2,4-oxadiazol-3-yl)benzenesulfonamide]

IC50 [1, 3]: 2400 nM
IC50 (Human recombinant HDAC4): 8.4 nM
IC50 [2]: > 10000 nM
Compound: CCN(C[C@@H](C)NC(=O)c1ccc(-c2noc(C(F)(F)F)n2)cc1F)C(C)C [Example 152, (R)—N-(1-(ethyl(isopropyl)amino)propan-2-yl)-2-fluoro-4-(5-(trifluoromethyl)-1,2,4-oxadiazol-3-yl)benzamide]

IC50 [1, 3]: 5500 nM
IC50 (Human recombinant HDAC4): 850 nM
IC50 [2]: > 10000 nM
Compound: O=C(Cc1ccc(-c2noc(C(F)(F)F)n2)cc1)N1CCOCC1 [Example 9, 1-Morpholino-2-(4-(5-(trifluoromethyl)-1,2,4-oxadiazol-3-yl)phenyl)ethanone]

IC50 [1, 3]: 2600 nM
IC50 (Human recombinant HDAC4): 1.8 nM
IC50 [2]: 2700 nM
Compound: CCCCN(C)C[C@@H](C)NC(=O)c1ccc(-c2noc(C(F)(F)F)n2)cc1F [Example 151, (R)—N-(1-(butyl(methyl)amino)propan-2-yl)-2-fluoro-4-(5-(trifluoromethyl)-1,2,4-oxadiazol-3-yl)benzamide]

IC50 [1, 3]: 1500 nM
IC50 (Human recombinant HDAC4): 110 nM
IC50 [2]: 6700 nM
Compound: CN(C)C[C@H](Cc1ccccc1)NC(=O)c1ccc(-c2noc(C(F)(F)F)n2)cc1F [Example 117, (S)—N-(1-(dimethylamino)-3-phenylpropan-2-yl)-2-fluoro-4-(5-(trifluoromethyl)-1,2,4-oxadiazol-3-yl)benzamide]

IC50 [1, 3]: 3000 nM
IC50 (Human recombinant HDAC4): 3.6 nM
IC50 [2]: 1800 nM
Compound: CN1CC[C@@H](NC(=O)c2ccc(-c3noc(C(F)(F)F)n3)cc2)C1 [Example 153, (R)—N-(1-methylpyrrolidin-3-yl)-4-(5-(trifluoromethyl)-1,2,4-oxadiazol-3-yl)benzamide]

IC50 [1, 3]: 3000 nM
IC50 [2]: 2200 nM
Compound: CCCN(CCC)C[C@@H](C)NC(=O)c1ccc(-c2noc(C(F)(F)F)n2)cc1 [Example 137, (R)—N-(1-(dipropylamino)propan-2-yl)-4-(5-(trifluoromethyl)-1,2,4-oxadiazol-3-yl)benzamide]
